Columns and labels:
[1] = system: HUVECs; assay: Endothelial cell tube formation under high glucose; assay type: cell-based, Human; conditions: high glucose 30 mM, 10 nM, 24 h
Excerpt: It is known that in the diabetic vascular complications, decreased angiogenesis and increased vascular endothelial permeability are among the risk factors causing local edema, ischemia followed by ulcer and amputation.
(§1) FIG. 3A, FIG. 3B and FIG. 3C show study of the in-vitro activity of the subject compound 1 against diabetic vascular complications.

[2] = Pharmacokinetic study, plasma concentration by LC-MS/MS; assay type: in vivo, ICR mice; conditions: ICR, mouse; for half-life: read-out: drug half-life period (converted)
Excerpt: Then, the plasma concentration was detected by LC-MS/MS at hour 0.083, 0.25, 0.5, 1, 2, 4, 8 and 24 respectively (FIG. 5).

[3] = system: human aortic smooth muscle cells (HASMCs); assay: Contractile/synthetic marker expression in angiotensin II-treated smooth muscle cells; assay type: cell-based; conditions: angiotensin II 1 μM, 10 nM, 24 hours
Excerpt: Then, cellular RNA were extracted to detect contractile/synthetic markers of smooth muscle cells.

[4] = system: diabetic C57BL/6J mice with lateral limb ischemia; assay: Streptozotocin diabetes + lateral limb ischemia model; assay type: in vivo
Experimental: To generate diabetes model, mice at week 8 were intraperitoneally injected with streptozotocin (60 mg/kg/day) for consecutive 5 days, then the modeling was identified as a success if the blood glucose was measured to be greater than 16.6 mmol/L at week 10. […] The gastrocnemius muscles of the ischemic lateral limbs of the mice were isolated for frozen section, and immunofluorescence (platelet-endothelial cell adhesion molecule, CD31) was used to detect the angiogenesis (FIG. 6B); and the semimembranosus muscles were isolated for frozen section, and immunofluorescence (α-smooth muscle actin, α-SMA) was used to detect the arteriogenesis (FIG. 6B).

[5] = system: HUVECs; assay: Endothelial cell sphere sprouting under high glucose; assay type: cell-based, Human; conditions: high glucose 30 mM, 10 nM, 24 h
Excerpt: as §1

[6] = system: C57BL/6J mice with β-aminopropionitrile-induced aortic aneurysm/dissection; assay: β-aminopropionitrile-induced aortic aneurysm/dissection model; assay type: in vivo
[7] = molecular target: T1, GSNOR (Homo sapiens, UniProt P11766); assay: GSNOR activity in lysate of treated HUVECs (NADH consumption at 340 nm); assay type: cell-based; conditions: for activities in in-vitro studies: relative to N6022
T1 construct: the cell lysate supernatants were treated with a substrate GSNO and a coenzyme NADH; endogenous in cells; host or cells: HUVEC (human umbilical vein endothelial cells)
Excerpt: GSNOR plays a crucial regulatory role in asthma and cystic fibrosis.

[8] = system: HUVECs; assay: Endothelial cell permeability under high glucose; assay type: cell-based, Human; conditions: high glucose 30 mM, 10 nM, 24 h
Excerpt: as §1

[9] = gavage 6 mg/kg/day vs N6022 iv 1 mg/kg/day, N6022-1 gavage 5.6 mg/kg/day, N6022-2 gavage 5.3 mg/kg/day
[10] = gavage 6 mg/kg/day, β-aminopropionitrile drinking water 28 days

T1 sequence (P11766 whole entry): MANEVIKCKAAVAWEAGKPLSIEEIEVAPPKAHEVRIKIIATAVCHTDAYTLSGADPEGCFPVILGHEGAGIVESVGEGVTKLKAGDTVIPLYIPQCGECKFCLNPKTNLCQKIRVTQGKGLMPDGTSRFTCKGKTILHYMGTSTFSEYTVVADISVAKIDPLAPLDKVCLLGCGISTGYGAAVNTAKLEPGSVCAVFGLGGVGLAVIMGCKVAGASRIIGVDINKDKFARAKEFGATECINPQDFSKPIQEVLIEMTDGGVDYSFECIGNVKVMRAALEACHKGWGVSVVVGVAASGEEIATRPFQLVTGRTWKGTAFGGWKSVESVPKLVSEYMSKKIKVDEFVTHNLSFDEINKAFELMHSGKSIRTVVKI

activities in in-vitro studies [7]	Structure (SMILES)	angiogenesis ability of endothelial cells (tube formation) [1]	half-life [2] [h]	decrease in the expression of the contractile markers (actin α2, calmodulin 1, transgelin) due to angiotensin II [3]	increase in the expression of the synthetic markers (osteopontin, Kruppel-like factor 4, Kruppel-like factor 5) due to angiotensin II [3]	angiogenesis of the ischemic lateral limbs of the diabetic mice (CD31, α-SMA) ([4]; gavage 6 mg/kg/day after operation)	effect on diabetic limb ischemia compared with controls [4, 9]	blood flow recovery of the lateral limbs (laser speckle imaging) ([4]; gavage 6 mg/kg/day, day 0, 7 and 14)	sprouting ability of the endothelial cells [5]	effect on aortic aneurysm/dissection compared with controls [6, 9]	expansion of the aortic diameter [6, 10]	mortality rate of the mice [6, 10]	bioavailability ([2]; po) [%]	inhibitory effect on the GSNOR activity ([7]; 10 nM, 24 hours, HUVECs, lysate + GSNO + NADH)	permeability of the endothelial cells [8]
	Cc1cc(C(N)=O)ccc1-n1c(CCC(=O)O)ccc1-c1ccc(-n2ccnc2)cc1 [N6022, 3-(5-(4-(1H-imidazol-1-yl)phenyl)-1-(4-carbamoyl-2-methylphenyl)-1H-pyrrol-2-yl) propanoic acid, reference compound]	obviously improve	0.76 ± 0.15	obviously inhibit	obviously inhibit										
significantly reduced	CCOC(=O)CCc1ccc(-c2ccc(-n3ccnc3)cc2)n1-c1ccc(C(N)=O)cc1C [N6022-2]														
significantly reduced	Cc1cc(C(N)=O)ccc1-n1c(CCC(N)=O)ccc1-c1ccc(-n2ccnc2)cc1 [N6022-1]														

Structure (SMILES)	activities in in-vitro studies [7]	angiogenesis ability of endothelial cells (tube formation) [1]	half-life [2] [h]	decrease in the expression of the contractile markers (actin α2, calmodulin 1, transgelin) due to angiotensin II [3]	increase in the expression of the synthetic markers (osteopontin, Kruppel-like factor 4, Kruppel-like factor 5) due to angiotensin II [3]	angiogenesis of the ischemic lateral limbs of the diabetic mice (CD31, α-SMA) ([4]; gavage 6 mg/kg/day after operation)	effect on diabetic limb ischemia compared with controls [4, 9]	blood flow recovery of the lateral limbs (laser speckle imaging) ([4]; gavage 6 mg/kg/day, day 0, 7 and 14)	sprouting ability of the endothelial cells [5]	effect on aortic aneurysm/dissection compared with controls [6, 9]	expansion of the aortic diameter [6, 10]	mortality rate of the mice [6, 10]	bioavailability ([2]; po) [%]	inhibitory effect on the GSNOR activity ([7]; 10 nM, 24 hours, HUVECs, lysate + GSNO + NADH)	permeability of the endothelial cells [8]
Cc1cc(C(N)=O)ccc1-n1c(CCC(=O)N2CCSC2=O)ccc1-c1ccc(-n2ccnc2)cc1 [subject compound 1, s4-(2-(4-(1H-imidazol-1-yl)phenyl)-5-(3-oxo-3-(2-oxothiazolidin-3-yl)propyl)-1H-pyrrol-1-yl)-3-methylbenzamide]	good activity in vitro	obviously improve	1.62 ± 0.81	obviously inhibit	obviously inhibit	obviously promote	equivalent effect to the group intravenously injected with N6022	restore blood flow	improve sprouting ability	equivalent effect to the group intravenously injected with N6022	inhibited	inhibited	60.1 ± 7.91	equivalent to N6022	modify the permeability

— patent publication US11667616B2, “Oral GSNOR inhibitor and pharmaceutical use thereof” (NANJING MEDICAL UNIVERSITY, priority 2020, dated 2023)
